Experimental data reported in patent US20220323406A1, “METHODS AND COMPOSITIONS FOR DIFFERENTIATING STEM CELLS” (Massachusetts Institute of Technology, priority 2019, published 2022).

Key:
Conditions in all cases: primary screen
[1] = test system: ENR+CD organoids (ISC to Paneth cell differentiation); experiment: Primary screen: CCh-stimulated lysozyme secretion LYZ.S, 2.5-D 384-well ENR+CD organoid differentiation; assay type: cell-based, mouse
Text: (§1) High-throughput screening.

[2] = test system: ENR+CD organoids (ISC to Paneth cell differentiation); experiment: Primary screen: basal (non-stimulated) lysozyme secretion LYZ.NS, 2.5-D 384-well ENR+CD organoid differentiation; assay type: cell-based, mouse
Text: as §1

ENR+CD organoids = experiment: Primary screen: ATP (CellTiter-Glo 3D, CTG) cell number/viability, 2.5-D 384-well ENR+CD organoids;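 further: compounds given at plating and again on day 3 over a 6-day differentiation from ENR+CV stem-cell-enriched precursors, ATP measured on day 6, plate median as control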

| Compound | Dose.FC.LYZ.S (log2 fold change) ([1]; dose 0.08 uM) | Dose.FC.LYZ.S (log2 fold change) ([1]; dose 0.40 uM) | Dose.FC.LYZ.S (log2 fold change) ([1]; dose 2.00 uM) | Dose.FC.LYZ.S (log2 fold change) ([1]; dose 10.00 uM) | Dose.FC.LYZ.NS (log2 fold change) ([2]; dose 0.08 uM) | Z.LYZ.NS (standard z score) ([2]; dose 0.08 uM) | Dose.FC.LYZ.NS (log2 fold change) ([2]; dose 0.40 uM) | Z.LYZ.NS (standard z score) ([2]; dose 0.40 uM) | Dose.FC.LYZ.NS (log2 fold change) ([2]; dose 2.00 uM) | Z.LYZ.NS (standard z score) ([2]; dose 2.00 uM) | Dose.FC.LYZ.NS (log2 fold change) ([2]; dose 10.00 uM) | Z.LYZ.NS (standard z score) ([2]; dose 10.00 uM) | Dose.FC.CTG (log2 fold change) (ENR+CD organoids; dose 0.08 uM) | Z.CTG (standard z score) (ENR+CD organoids; dose 0.08 uM) | Dose.FC.CTG (log2 fold change) (ENR+CD organoids; dose 0.40 uM) | Z.CTG (standard z score) (ENR+CD organoids; dose 0.40 uM) | Dose.FC.CTG (log2 fold change) (ENR+CD organoids; dose 2.00 uM) | Z.CTG (standard z score) (ENR+CD organoids; dose 2.00 uM) | Dose.FC.CTG (log2 fold change) (ENR+CD organoids; dose 10.00 uM) | Z.CTG (standard z score) (ENR+CD organoids; dose 10.00 uM) |
| --- | --- | --- | --- | --- | --- | --- | --- | --- | --- | --- | --- | --- | --- | --- | --- | --- | --- | --- | --- | --- |
| c1cc(-c2cnn3cc(-c4ccc(N5CCNCC5)cc4)cnc23)c2cccnc2c1 [LDN-212854] | 0.162 | 0.026 | −0.292 | −0.399 | 0.095 | 0.823 | 0.051 | 0.446 | −0.217 | −1.885 | −0.273 | −2.375 | 0.238 | 0.568 | 0.129 | 0.309 | −0.475 | −1.134 | −1.263 | −3.018 |
| C[C@H](NC(=O)[C@@H](O)c1cc(F)cc(F)c1)C(=O)N[C@@H]1C(=O)N(C)c2ccccc2-c2ccccc21 [LY411575] | 0.024 | 0.041 | −0.091 | −0.157 | 0.040 | 0.347 | −0.050 | −0.434 | −0.069 | −0.598 | −0.109 | −0.949 | 0.035 | 0.083 | −0.172 | −0.411 | −0.172 | −0.412 | −0.259 | −0.618 |
| Cc1cccc(-c2nn3c(c2-c2ccnc4ccc(C(N)=O)cc24)CCC3)n1 [LY2157299] | 0.187 | 0.199 | 0.113 | 0.223 | 0.227 | 1.973 | 0.140 | 1.221 | 0.092 | 0.799 | 0.162 | 1.408 | 0.091 | 0.218 | 0.137 | 0.328 | 0.017 | 0.041 | 0.095 | 0.226 |
| CC(C)(C)Cn1c(N)nc2ccc(-c3[nH]c(C(C)(C)C)nc3-c3ccc(F)cc3)nc21 [LY2228820] | −0.017 | −0.054 | −0.130 | −0.164 | 0.065 | 0.569 | −0.100 | −0.874 | 0.043 | 0.377 | −0.126 | −1.099 | −0.299 | −0.715 | −0.340 | −0.812 | −0.339 | −0.810 | −0.332 | −0.793 |
| Cc1cnc(NC(=O)Nc2cc(Br)c(C)cc2OC[C@@H]2CNCCO2)cn1 [LY2603618] | 0.009 | −0.147 | −0.269 | −0.356 | −0.005 | −0.046 | −0.091 | −0.791 | −0.193 | −1.685 | −0.233 | −2.026 | −0.004 | −0.010 | −0.238 | −0.567 | −0.396 | −0.946 | −0.983 | −2.347 |
| Cc1cc(Nc2cc(CN3CCOCC3)c3nc(C)c(Cc4ccc(Cl)cc4F)n3n2)n[nH]1 [LY2784544] | 0.123 | 0.077 | 0.114 | −0.367 | 0.132 | 1.152 | 0.004 | 0.033 | 0.068 | 0.591 | −0.280 | −2.439 | 0.108 | 0.259 | 0.062 | 0.148 | 0.181 | 0.433 | −0.831 | −1.984 |
| O=C(C[S+]([O-])Cc1ccco1)NC/C=C\COc1cc(CN2CCCCC2)ccn1 (stereo not drawn) [Lafutidine] | 0.052 | 0.078 | 0.076 | −0.014 | 0.043 | 0.372 | 0.007 | 0.059 | 0.037 | 0.320 | 0.075 | 0.657 | 0.152 |  | 0.145 |  | 0.138 |  | −0.098 |  |
| Nc1cccc2c1CN(C1CCC(=O)NC1=O)C2=O (stereo not drawn) [Lenalidomide (CC-5013)] | 0.099 | 0.176 | 0.025 | −0.045 | 0.147 | 1.283 | 0.099 | 0.863 | 0.071 | 0.615 | −0.041 | −0.360 | 0.046 | 0.110 | −0.016 | −0.037 | −0.250 | −0.596 | −0.316 | −0.754 |
